Source: US12168008B2, “Oxabicycloheptanes for modulation of immune response” (LIXTE BIOTECHNOLOGY, INC., priority 2016, dated 2024)

Legend:
[1] = clinical; assay type: in vivo, human; conditions: for Cmax / AUC / Tmax: endothall after LB-100 2.33 mg/m^2
Method: The main objective was to determine the safety, tolerability, and maximum tolerated dose of LB-100 given intravenously daily for three consecutive days every 3 weeks. The secondary objectives were to document any evidence of potential anti-tumor activity and obtain pharmacokinetic data on LB-100 and a metabolite, endothall, in patients receiving LB-100 at the MTD (Quang et al., 2016).
The plasma concentrations of LB-100 and endothall were measured (Quang et al., 2016) prior to and over 4 hours after completion of the 2-hour infusion at the MTD of 2.33 mg/m2 of LB-100 on day 1 in one patient and on day 1 and 3 in two patients. […] Plasma concentrations of endothall were low throughout the infusion, being below the lower limit of detection (5 ng/mL) in one patient.

[2] = system: solid tumor; conditions: cited from earlier work
[3] = human, in vivo; cited from earlier work

**Q.** With O=C(O)[C@@H]1[C@H](C(=O)O)[C@H]2CC[C@@H]1O2 [endothall] as the molecule, how does the Cmax ([1]; subject 001-0030, day 1, N-D = below lower limit of quantification (5 ng/ml)) read?
**A.** The Cmax was “N-D^a”.

**Q.** What about the Cmax ([1]; subject 001-0030, day 3, N-D = below lower limit of quantification (5 ng/ml)) of the same molecule?
**A.** The Cmax was “N-D^a”.

**Q.** What about the AUC ([1]; subject 002-0028, day 1) of the same molecule?
**A.** The AUC was 22 ng·h/mL.

**Q.** What about the Cmax ([1]; subject 002-0028, day 1) of the same molecule?
**A.** Its Cmax is 11.5 ng/mL.

**Q.** And the Tmax ([1]; subject 002-0028, day 1)?
**A.** The Tmax was 4 h.

**Q.** And the AUC ([1]; subject 002-0028, day 3)?
**A.** The AUC was 143 ng·h/mL.

**Q.** And the Cmax ([1]; subject 002-0028, day 3)?
**A.** Its Cmax is 34.3 ng/mL.

**Q.** What about the Tmax ([1]; subject 002-0028, day 3) of the same molecule?
**A.** Its Tmax is 4 h.

**Q.** What about the AUC ([1]; subject 003-0029, day 1) of the same molecule?
**A.** Its AUC is 28 ng·h/mL.

**Q.** And the Cmax ([1]; subject 003-0029, day 1)?
**A.** Its Cmax is 14.8 ng/mL.

**Q.** What about the Tmax ([1]; subject 003-0029, day 1) of the same molecule?
**A.** The Tmax was 4 h.

**Q.** And the “plasma concentration of endothall” value ([1]; one patient, after LB-100 2.33 mg/m2, lower limit of detection)?
**A.** The value was under 5 ng/mL.

**Q.** What about the “maximal concentration of endothall” value ([1]; other two patients, last sampling time point (4 h)) of the same molecule?
**A.** Its value is 34.7 ng/mL.

**Q.** What does the source list for C[C@@](O)(/C=C/[C@H]1CC=CC(=O)O1)[C@@H](C[C@@H](O)\C=C/C=C\C=C\CO)OP(=O)(O)O [fostriecin]?
**A.** dose-limiting toxicity (DLT) ([2]; in vivo): without dose-limiting toxicity; disease stability ([2]; of 46 solid tumor patients): 16 (34.8%) patients (%)

**Q.** What does the source list for “ipilimumab: human cytotoxic T-lymphocyte antigen 4 (CTLA-4)-blocking antibody”?
**A.** incidence of death [3]: 2.1%; patients with grade 3 or 4 adverse events [3]: up to 15%
